Laboratory results reported in paper PMC7986605 (Journal of Neuroscience Research, 2021).

System: primary hippocampal/cortical neuronal and glial cultures
Conditions: for inhibition of α-synuclein oligomer-induced trafficking deficits (in words): α-synuclein oligomer 1.0 μM, 0.5–20 µM

## CCCCCCNC(=O)n1cc(F)c(=O)[nH]c1=O [carmofur]
  inhibition of α-synuclein oligomer-induced trafficking deficits (in words): weakly inhibited

## CC[C@H](C)C(=O)O[C@H]1C[C@@H](C)C=C2C=C[C@H](C)[C@H](CC[C@@H]3C[C@@H](O)CC(=O)O3)[C@H]21 [lovastatin]
  inhibition of α-synuclein oligomer-induced trafficking deficits (in words): inhibited deficits at low concentrations

## NC(=O)N1c2ccccc2C=Cc2ccccc21 [carbamazepine]
  inhibition of α-synuclein oligomer-induced trafficking deficits (in words): inhibited deficits at low concentrations

## CCCCC1=NC2(CCCC2)C(=O)N1Cc1ccc(-c2ccccc2-c2nnn[nH]2)cc1 [irbesartan]
  inhibition of α-synuclein oligomer-induced trafficking deficits (in words): weakly inhibited

## CC(NC(C)(C)C)C(=O)c1cccc(Cl)c1 (stereo not drawn) [bupropion]
  inhibition of α-synuclein oligomer-induced trafficking deficits (in words): weakly inhibited

## CSc1ccc2c(c1)N(CCC1CCCCN1C)c1ccccc1S2 (stereo not drawn) [thioridazine]
Sprague-Dawley, rat
  concentrations at which the compound was toxic/cytotoxic: above 1 µM
